Measured values taken from EP4755881A1 (Wuhan Createrna Science and Technology Co., Ltd., priority 2023, dated 2025).
Read-outs that look alike come from different tables or passages of the source.

Assays:
[1] = Pharmacokinetic study in rats (oral gavage and tail vein injection, plasma LC-MS/MS); format: in vivo; settings: rat; for Cmax: read-out: Cmax
In short: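 Plasma from SD rats is taken at 0.167–24 h after oral gavage or at 0.033–24 h after intravenous tail-vein dosing and assayed by LC-MS/MS. Oral animals are fasted overnight and dosed in DMSO/ethanol/PEG400/saline; IV animals receive ethanol/water/PEG400. PK parameters come from a non-compartmental model.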

[2] = target: T1, LPAR1 receptor (Homo sapiens, UniProt Q92633); assay: LPAR1 in vitro biological activity evaluation 2: HTRF cAMP kit (LANCE Ultra cAMP Kit) assay in CHO stable transfected cell line expressing the LPAR1 receptor; format: cell-based; settings: Table 2, read-out: LPAR1 inhibitory activity IC50
T1 construct: expressed in transfected cells
Protocol: The inhibitory effects of the compounds of the present disclosure on the LPAR1 receptor were determined using a Chinese hamster ovary (CHO) stable transfected cell line expressing the LPAR1 receptor, through the HTRF cAMP kit (LANCE® Ultra cAMP Kit).
The CHO cell line expressing the LPAR1 receptor was cultured in F-12 medium (Gibco, 117650054) containing 10% fetal bovine serum (FBS, Avantor, 76294-180) and 0.2 mg/mL hygromycin B (Solarbio, H8080-1g) at 37°C with 5% CO2. Cell passage, recovery, and cryopreservation were performed according to conventional methods. The stable transfected cell line was cultured to 80% confluence, digested with trypsin to collect cells, counted, and then seeded at 5 µL/well in a 384-well plate (500 cells/5 µL). The 1× Stimulation Buffer was prepared according to the instructions of the kit (LANCE® Ultra cAMP Kit). 1 µL of the test compound solution (diluted to 10× with 1× Stimulation Buffer) was added to the corresponding experimental wells, followed by centrifugation and incubation at 37°C for 10 minutes. […] 5 µL/well of Eu-cAMP (diluted with Detection buffer) was added to the corresponding experimental wells. 5 µL/well of ULight™-anti-cAMP antibody (diluted with Detection buffer) was added to the corresponding experimental wells, followed by centrifugation and incubation at room temperature for 1 hour. After the incubation was completed, the readings at 665 nm and 620 nm under 330 nm excitation were detected using the HTS high-throughput drug screening multifunctional microplate reader (BMG, PHERAstar FSX). The IC50 values were calculated by fitting nonlinear regression (dose response - variable slope) using GraphPad Prism software.

[3] = target: hLPAR1 (human lysophosphatidic acid receptor 1, Accession No.: NM_001401.4) (Homo sapiens, UniProt Q92633); assay: cell-based; settings: LPAR1 inhibitory activity IC50, Table 1; FLIPR method, CHO-K1 cells overexpressing hLPAR1
In short: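 Antagonist mode in CHO-K1 cells stably expressing hLPAR1, Fluo-4 loaded; compound preincubated 30 min at room temperature before 1 µM oleoyl-LPA (final) challenge.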

T1 sequence (Q92633 whole entry): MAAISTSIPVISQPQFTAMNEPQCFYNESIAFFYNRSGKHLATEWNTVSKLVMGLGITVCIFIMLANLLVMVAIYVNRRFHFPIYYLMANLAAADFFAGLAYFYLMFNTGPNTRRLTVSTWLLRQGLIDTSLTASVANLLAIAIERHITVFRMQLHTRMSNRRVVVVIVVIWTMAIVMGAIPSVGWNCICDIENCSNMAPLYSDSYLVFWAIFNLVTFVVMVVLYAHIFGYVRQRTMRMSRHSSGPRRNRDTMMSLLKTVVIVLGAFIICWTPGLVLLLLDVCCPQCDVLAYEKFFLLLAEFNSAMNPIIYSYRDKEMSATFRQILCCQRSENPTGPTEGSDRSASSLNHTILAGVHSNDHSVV
Sequence of hLPAR1 (human lysophosphatidic acid receptor 1, Accession No.: NM_001401.4) (Q92633 whole entry): as above

In the case of `Cc1nc(-c2nnn(C)c2NC(=O)O[C@H](C)c2ccccc2)ccc1C#C[C@@H]1CC[C@H]1C(=O)O` [compound 309], the half-life ([1]; male, SD, iv, 1 mg/kg) is reported as 4.36 h, the half-life ([1]; male, SD, po, 1 mg/kg) is reported as 4.08 h and the AUC(0-t) ([1]; male, SD rats, Iv, 1 mg/kg) is reported as 3000 to 5000 ng·h/mL. For the same compound, the Cmax ([1]; male, SD rats, Iv, 1 mg/kg) was 800 to 5000 ng/mL, the AUC(0-t) ([1]; male, SD rats, Po, 1 mg/kg) was 5000 to 10000 ng·h/mL and the Cmax ([1]; male, SD rats, Po, 1 mg/kg) was 800 to 5000 ng/mL. It also gave an IC50 [2] of 83.2 nM.

In the case of `CCC(F)(F)[C@@H](C)OC(=O)Nc1c(C)noc1-c1ccc(C#CC2(CC(=O)O)CC(OC)C2)c(C(F)(F)F)n1` (stereo partly shown) [compound 506], the half-life ([1]; male, SD, iv, 1 mg/kg) is reported as 2.51 h, the half-life ([1]; male, SD, po, 1 mg/kg) is reported as 2.41 h and the AUC(0-t) ([1]; male, SD rats, Iv, 1 mg/kg) is reported as 10000 to 20000 ng·h/mL. It also gave a Cmax ([1]; male, SD rats, Iv, 1 mg/kg) of 8000 to 12000 ng/mL, an AUC(0-t) ([1]; male, SD rats, Po, 1 mg/kg) of 10000 to 20000 ng·h/mL and a Cmax ([1]; male, SD rats, Po, 1 mg/kg) of 800 to 5000 ng/mL. It also gave an IC50 [2] of 20.1 nM.

`CCCN(C)C(=O)OCc1c(-c2ccc(O[C@H]3CCC[C@H](C(=O)O)C3)c(C)n2)nnn1C` [Control compound 1, reference compound] gave a half-life ([1]; male, SD, iv, 1 mg/kg) of 3.26 h, a half-life ([1]; male, SD, po, 1 mg/kg) of 2.37 h and a half-life ([1]; male, SD, po, 3 mg/kg) of 2.59 h. The AUC(0-t) ([1]; male, SD rats, Iv, 1 mg/kg) was 811 ng·h/mL, the Cmax ([1]; male, SD rats, Iv, 1 mg/kg) was 1570 ng/mL and the AUC(0-t) ([1]; male, SD rats, Po, 1 mg/kg) was 626 ng·h/mL. The Cmax ([1]; male, SD rats, Po, 1 mg/kg) was 154 ng/mL, the AUC(0-t) ([1]; male, SD rats, Po, 3 mg/kg) was 1540 ng·h/mL and the Cmax ([1]; male, SD rats, Po, 3 mg/kg) was 985 ng/mL. It also gave an IC50 [2] of 407 nM.

`Cc1nc(-c2nnn(C)c2NC(=O)O[C@H](C)CC(C)C)ccc1C#C[C@@H]1CC[C@H]1C(=O)O` [compound 308] gave an IC50 [3] of 10.9 nM and an IC50 [2] of 93.2 nM.

`CCCC(C)OC(=O)Nc1c(-c2ccc(C#CC3CCCC3C(=O)O)c(C)n2)nnn1C` (single isomer, unassigned) [305-B] gave an AUC(0-t) ([1]; SD rats, Iv, 1 mg/kg) of 3000 to 5000 ng·h/mL, a half-life ([1]; SD rats, Iv, 1 mg/kg) of 3.52 h and a Cmax ([1]; SD rats, Iv, 1 mg/kg) of 800 to 5000 ng/mL. For the same compound, the AUC(0-t) ([1]; SD rats, Po, 1 mg/kg) was 5000 to 10000 ng·h/mL, the half-life ([1]; SD rats, Po, 1 mg/kg) was 3.49 h and the Cmax ([1]; SD rats, Po, 1 mg/kg) was 800 to 5000 ng/mL. It also gave an IC50 [2] of 81.5 nM.

For `CCc1nc(-c2nnn(C)c2NC(=O)O[C@H](C)CC(C)(F)F)ccc1C#CC1(CC(=O)O)CC1` [compound 232], the AUC(0-t) ([1]; SD rats, Iv, 1 mg/kg) was 5000 to 10000 ng·h/mL, the half-life ([1]; SD rats, Iv, 1 mg/kg) was 14.5 h and the Cmax ([1]; SD rats, Iv, 1 mg/kg) was 800 to 5000 ng/mL. The AUC(0-t) ([1]; SD rats, Po, 1 mg/kg) was 3000 to 5000 ng·h/mL, the half-life ([1]; SD rats, Po, 1 mg/kg) was 14 h and the Cmax ([1]; SD rats, Po, 1 mg/kg) was 200 to 800 ng/mL. For the same compound, the IC50 [2] was 75.4 nM.

In the case of `Cc1nc(-c2onc(C)c2NC(=O)O[C@H](C)CC(C)(F)F)ccc1C#CC1(CC(=O)O)CC1` [compound 276], the AUC(0-t) ([1]; SD rats, Iv, 1 mg/kg) is reported as 3000 to 5000 ng·h/mL, the half-life ([1]; SD rats, Iv, 1 mg/kg) is reported as 3.69 h and the Cmax ([1]; SD rats, Iv, 1 mg/kg) is reported as 800 to 5000 ng/mL. For the same compound, the IC50 [2] was 96.4 nM.

For `CCOC1CC(C#Cc2ccc(-c3nnn(C)c3NC(=O)O[C@H](C)C(F)(F)CC)nc2C)(CC(=O)O)C1` (stereo partly shown) [compound 429], the half-life ([1]; male, SD, iv, 1 mg/kg) was 6.87 h, the half-life ([1]; male, SD, po, 1 mg/kg) was 5.7 h and the AUC(0-t) ([1]; male, SD rats, Iv, 1 mg/kg) was 3000 to 5000 ng·h/mL. For the same compound, the Cmax ([1]; male, SD rats, Iv, 1 mg/kg) was 5000 to 8000 ng/mL, the AUC(0-t) ([1]; male, SD rats, Po, 1 mg/kg) was 3000 to 5000 ng·h/mL and the Cmax ([1]; male, SD rats, Po, 1 mg/kg) was 200 to 800 ng/mL. It also gave an IC50 [2] of 33.4 nM.

Work on `CCC[C@@H](C)OC(=O)Nc1c(-c2ccc(C#CC3(P(=O)(O)O)CC4(CC4)C3)c(C)n2)nnn1C` [compound 510] yielded an IC50 [2] of 32.1 nM.

`CCc1nc(-c2nnn(C)c2NC(=O)O[C@H](C)C(F)(F)CC)ccc1C#CC1(CC(=O)O)CC(OC)C1` (stereo partly shown) [compound 462] gave a half-life ([1]; male, SD, iv, 1 mg/kg) of 6.41 h, a half-life ([1]; male, SD, po, 1 mg/kg) of 5.41 h and an AUC(0-t) ([1]; male, SD rats, Iv, 1 mg/kg) of 5000 to 10000 ng·h/mL. For the same compound, the Cmax ([1]; male, SD rats, Iv, 1 mg/kg) was 8000 to 12000 ng/mL, the AUC(0-t) ([1]; male, SD rats, Po, 1 mg/kg) was 10000 to 20000 ng·h/mL and the Cmax ([1]; male, SD rats, Po, 1 mg/kg) was 800 to 5000 ng/mL. For the same compound, the IC50 [2] was 48.7 nM.

`Cc1nc(-c2nnn(C)c2NC(=O)O[C@H](C)C23CC(C2)C3)ccc1C#CC1(CC(=O)O)CC(F)(F)C1` [compound 432] gave an IC50 [2] of 16.6 nM.

`CCC[C@@H](C)OC(=O)Nc1c(-c2ccc(C#CC3(CC(=O)O)CC(OC)C3)c(C)n2)nnn1C` (single isomer, unassigned) [278-B] showed an IC50 [2] of 56 nM.

With `COC1CC(C#Cc2ccc(-c3nnn(C)c3NC(=O)O[C@H](C)c3ccccc3Cl)nc2C)(CC(=O)O)C1` (stereo partly shown) [compound 465] the IC50 [2] was 30.9 nM.

Compound `CCC(F)(F)[C@@H](C)OC(=O)Nc1c(C)noc1-c1ccc(C#C[C@@H]2CC[C@H]2C(=O)O)c(C)n1` [compound 486] has an IC50 [2] of 34.1 nM.

For `CCCCN(C)C(=O)OCc1c(-c2ccc(C#CC3(CC(=O)O)CC(OCC)C3)c(C)n2)nnn1C` (stereo not shown) [compound 114], the IC50 [2] was 9.2 nM.

For `COC1CC(C#Cc2ccc(-c3nnn(C)c3NC(=O)O[C@H](C)c3ccccc3)nc2C)(CC(=O)O)C1` (stereo partly shown) [compound 464], the IC50 [2] was 23.6 nM.

`COC1CC(C#Cc2ccc(-c3nnn(C)c3NC(=O)O[C@H](C)c3ccccc3F)nc2C)(CC(=O)O)C1` (stereo partly shown) [compound 466] showed an IC50 [2] of 25.5 nM.

Work on `Cc1nc(-c2nnn(C)c2NC(=O)OC(C)C23CC(C2)C3)ccc1C#C[C@@H]1CC[C@H]1C(=O)O` (stereo partly shown) [compound 296] yielded an IC50 [2] of 83.8 nM.
